Measurements published in PubChem BioAssay (NCI).
“And” between values parts separate entries of the source, which are not always exact repeats. Equal entries are not always repeated.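 Where inhibition never reached the appropriate level, the endpoint shown equals the highest concentration tested. Otherwise, values were interpolated linearly from a five-concentration, 48-hour dose response in 96-well plates. GI50 is the concentration that inhibits growth by half. TGI is the concentration that stops growth completely.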

Experiments:
Test in all cases: DTP human tumour cell line panel, 48 h
786-0 renal = system: 786-0 renal
CCRF-CEM leukemia = system: CCRF-CEM leukemia
RXF 393 renal = system: RXF 393 renal
COLO 205 colon = system: COLO 205 colon
MALME-3M melanoma = system: MALME-3M melanoma
HT29 colon = system: HT29 colon
ACHN renal = system: ACHN renal
M14 melanoma = system: M14 melanoma
HCC-2998 colon = system: HCC-2998 colon
NCI-H226 lung = system: NCI-H226 lung

SMILES	GI50 (786-0 renal) [µM]	TGI (786-0 renal)	GI50 (CCRF-CEM leukemia)	TGI (CCRF-CEM leukemia)	GI50 (RXF 393 renal)	TGI (RXF 393 renal)	GI50 (COLO 205 colon) [µM]	TGI (COLO 205 colon)	GI50 (MALME-3M melanoma) [µM]	TGI (MALME-3M melanoma)	GI50 (HT29 colon) [µM]	TGI (HT29 colon) [µM]	GI50 (ACHN renal) [µM]	TGI (ACHN renal) [µM]	GI50 (M14 melanoma) [µM]	TGI (M14 melanoma) [µM]	GI50 (HCC-2998 colon) [µM]	TGI (HCC-2998 colon)	GI50 (NCI-H226 lung) [µM]	TGI (NCI-H226 lung)
CC12CCC3C(CC=C4CC(O)CCC43C)C1C/C(=C\N1CCCC1)C2=O (stereo not given)	> 100	> 100 µM	79.3 µM	> 100 µM	41.8 µM	> 100 µM	> 100	> 100 µM	71.5	> 100 µM	> 100	> 100	91.8	> 100	> 100	> 100	> 100	> 100 µM	> 100	> 100 µM
CCCC1c2c(ccc3ccccc23)Oc2ccc3ccccc3c21	–	> 100 µM	–	–	–	> 100 µM	–	> 100 µM	–	> 100 µM	–	> 100	–	> 100	–	> 100	–	–	–	> 100 µM
CCCCCCCCCCCCCCCCCC(=O)OCC(CN(C)CCN(C)C)OC(=O)CCCCCCCCCCCCCCCCC (stereo not given)	–	> 100 µM	–	> 100 µM	–	> 100 µM	–	> 100 µM	–	> 100 µM	–	> 100	–	> 100	–	> 100	–	> 100 µM	–	> 100 µM
Oc1ccc(Cc2ccc(O)c3ncccc23)c2cccnc12	0.193	> 100 µM	0.209 µM	> 100 µM	0.154 µM	> 100 µM	> 100	> 100 µM	0.0497	> 100 µM	> 100	> 100	0.0367	> 100	0.0423	> 100	0.524	> 100 µM	0.373	42.7 µM
O=Cc1c(-c2cc(O)ccc2O)nc2sccn12	3.83	15.9 µM	0.95 µM	7.21 µM	7.83 µM	26.6 µM	32.3	> 100 µM	10.9	25 µM	35.1	> 100	9.85	22.6	13.8	30.1	17.3	33.6 µM	14.7	37.7 µM
COc1ccccc1-[n+]1cc(-c2ccc(-c3ccccc3)cc2)n2c1CCCCC2	1.31	11.5 µM	0.224 µM	23.9 µM	0.867 µM	9.5 µM	0.236	2.62 µM	0.158	0.869 µM	0.281	10.2	2.45	11.3	0.443	10.1	0.318	12.6 µM	0.773	13.4 µM
COc1cc(Nc2nc3cc(N)cc(N)c3nc2-c2ccccc2)cc(OC)c1	17.7	50.8 µM	–	0.167 µM	3.15 µM	18.8 µM	14.5	31.4 µM	4.34	24.6 µM	27.3	> 100	5.65	83.2	14.2	34.8	24.3	> 100 µM	2.9	32.9 µM
COc1c(O)c2c(c3cc(C(=O)N4CCc5c4c(O)c(OC)c4[nH]c(C(=O)N6CC7CC78C6=CC(=O)c6[nH]cc(C)c68)cc54)[nH]c13)CCN2C(N)=O (stereo not given)	0.0293	–	0.00439 µg/mL	963 nM and 0.0344 µg/mL	0.0282 µg/mL	447 nM and 0.0456 µg/mL	–	3.83 nM and 5.18 µM and 0.00504 µg/mL	–	5.23 nM and 1.02 µM and 0.00419 µg/mL	0.00254	–	–	0.0142	0.172	–	0.173	0.174 µM and 1.02 µM	–	1.47 nM and 276 nM and 0.0163 µg/mL
O=C1c2cccc3cc([N+](=O)[O-])cc(c23)C(=O)N1CCNCCNCCNCCN1C(=O)c2cccc3cc([N+](=O)[O-])cc(c23)C1=O	–	1.08 µM and 0.612 µM	–	0.635 µM	0.0162 µM	0.269 µM and 0.169 µM	–	–	–	0.297 µM	–	–	–	–	–	0.161	–	0.226 µM	–	0.309 µM and 0.315 µM
O=c1c2ccccc2c2ccccc2c(=O)n1-c1cc2c3ccccc3ccc2c2ccccc12	–	> 100 µM	–	–	–	> 100 µM	–	> 100 µM	–	> 100 µM	–	> 100	–	> 100	–	> 100	–	89.1 µM	–	> 100 µM
O=C(O)C(=Cc1ccnc2ccccc12)C(=O)O	–	> 100 µM	–	> 100 µM	–	> 100 µM	–	> 100 µM	–	> 100 µM	–	> 100	–	> 100	–	> 100	–	–	–	> 100 µM
COCCn1cc(-c2csc(-c3c[nH]c4ccccc34)n2)c2cccnc21	6.25	> 100 µM	> 100 µM	> 100 µM	5.76 µM	64.3 µM	2.66	> 100 µM	3.58	> 100 µM	3.19	> 100	5.59	> 100	3.22	> 100	4.08	> 100 µM	–	–
CC(=O)Nc1ccc(/C=C/[N+](=O)[O-])cc1	–	7.61 µM	–	7.48 µM	–	6.43 µM	–	7.28 µM	–	17.7 µM	–	3.93	–	9.44	–	7.01	–	–	–	3.94 µM
O=S(=O)([O-])c1cccc2cccc(N=Cc3ccccc3[O-])c12.O=S(=O)([O-])c1cccc2cccc(N=Cc3ccccc3[O-])c12.[O]=[U]=[O]	33.7	> 100 µM	18.4 µM	> 100 µM	10.7 µM	25.1 µM	64.8	> 100 µM	> 100	> 100 µM	58	> 100	38.5	> 100	43	> 100	–	–	84.9	> 100 µM
CCN(CC)c1ccc(/C=C\c2cc(C)c3cc(C)ccc3n2)cc1	3.98	> 100 µM	–	–	3.99 µM	> 100 µM	3.67	18.5 µM	4.68	> 100 µM	2.65	11.4	6.23	> 100	3.89	> 100	4.44	23.8 µM	7.29	> 100 µM
CC(O)/C=C/C(CCC(C)CO)C(C)C (stereo not given)	–	> 100 µM	–	> 100 µM	–	> 100 µM	–	> 100 µM	–	> 100 µM	–	> 100	–	> 100	–	> 100	–	> 100 µM	–	–
O=C1CCC(Cc2ccc(Cl)cc2Cl)C(=O)N1 (stereo not given)	–	> 100 µM	–	> 100 µM	–	> 100 µM	–	> 100 µM	–	> 100 µM	–	> 100	–	> 100	–	> 100	–	–	–	> 100 µM
Cc1ccc(NC(=O)CC2C(=O)Nc3ccccc3S2=O)cc1C (stereo not given)	–	68.8 µM	–	> 100 µM	–	41.8 µM	–	–	–	> 100 µM	–	> 100	–	> 100	–	> 100	–	> 100 µM	–	> 100 µM
O=c1cccc(C#CC#C[C@H]2O[C@@H]2CO)o1	0.637	1.54 µM	0.17 µM	0.431 µM	0.448 µM	1.74 µM	0.665	1.58 µM	–	–	–	–	0.322	0.985	1.23	–	0.788	2.19 µM	0.309	1.11 µM
COc1ccc2[nH]c(-c3ccccn3)cc(=O)c2c1	–	> 100 µM	–	> 100 µM	2.49 µM	33.8 µM	–	> 100 µM	–	75.6 µM	–	> 100	–	> 100	–	90.9	–	–	36.6	> 100 µM
O=C1NC(=S)NC(=O)C1=Cc1cc2c(cc1[N+](=O)[O-])OCO2	–	> 100 µM	–	> 100 µM	–	> 100 µM	–	> 100 µM	–	> 100 µM	–	–	–	> 100	–	> 100	–	> 100 µM	–	> 100 µM
CCCCCCCCCCC/C(=N/O)c1ccc(O)c2ncccc12	–	30.2 µM	–	–	–	27.6 µM	–	> 100 µM	–	12.6 µM	–	17.2	–	6.14	–	4.8	–	23.1 µM	–	11.9 µM
O=C1C(Cl)C(c2cccc(O)c2)N1n1cnc2ccccc2c1=O (stereo not given)	–	> 100 µM	–	–	–	> 100 µM	–	> 100 µM	–	> 100 µM	–	> 100	–	> 100	–	> 100	–	> 100 µM	–	> 100 µM
Cc1c(/C=N/NS(=O)(=O)c2ccccc2)no[n+]1[O-]	–	> 100 µM	–	> 100 µM	–	> 100 µM	–	> 100 µM	–	> 100 µM	–	> 100	–	–	–	> 100	–	–	–	–
[Cl][Bi]([O]c1ccccn1)[O]c1ccccn1	> 100	> 100 µM	–	–	> 100 µM	> 100 µM	> 100	> 100 µM	> 100	> 100 µM	–	–	> 100	> 100	> 100	> 100	> 100	> 100 µM	–	–
